In experiment [1] the test system is Hsp70 (HspA1A and HspA1B) in PBMC. Nature of the experiment: Hsp70 level in PBMC samples of NPC patients treated with arimoclomol (ELISA). Format: in vivo, human. As for the experimental part: Whole blood samples were collected in 6 mL EDTA tubes at the clinical study sites and shipped ambient to a central laboratory for sample preparation.
Clinical study samples (n=26) were obtained from individuals with Niemann Pick disease Type C (NPC patients), who were 2 to 18 years of age, diagnosed with NPC, had at least one neurological symptom and had preserved ability to walk with assistance. Patients were maintained on standard therapy during the study. Samples were collected at a first clinical study visit (inclusion) and at a second clinical study visit 6 to 14 months following the first visit.
Plasma was separated from whole blood by centrifugation at room temperature. Blood volume was restored in PBS and PBMCs were isolated by density gradient centrifugation using Histopaque™. Viable PBMC cell count was determined by flow cytometry. Aliquots of 1 mio. PBMC were generated and stored frozen at −70° C.
Hsp70 was quantified using the Human/Mouse/Rat total HSP70 DuoSet® IC ELISA kit (R&D Systems). Prior to analysis of the clinical study samples, the analytical method had been qualified for determination of Hsp70 in human PBMC samples. The Human/Mouse/Rat total HSP70 DuoSet® IC ELISA kit detects the levels of HspA1A and HspA1B with no cross-reactivity of HspA5 and HspA8.
The materials and methods were performed as described in Example 1.
The Hsp70 concentration was measured in homogenates of Peripheral Blood Mononuclear Cells (PBMC). Hsp70 was determined in an observational study (FIGS. 4 and 5), at screening (pretreatment) and then again after 6-14 months (baseline). Patients were treated for 12 months with arimoclomol (Clinicaltrials.gov identifier NCT02612129). Hsp70 levels were analyzed by the Wilcoxon signed rank test for the 12 patients on arimoclomol with baseline and 12 months data point comparing the Hsp70 levels before and after 12 months of treatment.

In experiment [2] the test system is mutant NPC1 mice. As to conditions: cited from earlier work.
Where [3] appears, read: PBMC homogenates, 12 months of treatment vs baseline, n=12.

Take `[O-][n+]1cccc(/C(Cl)=N/OC[C@H](O)CN2CCCCC2)c1` [arimoclomol, N-[2-hydroxy-3-(1-piperidinyl)-propoxy]-pyridine-1-oxide-3-carboximidoyl chloride]: in experiment [1] (setting [3]), the “Hsp70 change from baseline, Median” value is listed as 1175.5 pg/mL; the “Hsp70 change from baseline, Min-max” value is 234.7 to 6509.0 pg/mL; the “Hsp70 change from baseline, mean (SD)” value is 1815.0 (1754.6) pg/mL. Further, the “PBMC-level of Hsp70 compared to baseline” value in experiment [1] (treatment for 12 months) is given as “significantly increased”. Also, in experiment [2], the “neuronal as well as visceral pathology” value was “reversed” and the “size of the lysosomal compartment” value is on record as “reduced”.
